How the values were obtained:
[1] = Pressure overload cardiomyopathy (transverse aortic constriction, TAC) model; assay type: in vivo, mouse
From the text: FIG. 7. A61603 rescues pressure overload cardiomyopathy. Mice had echo 2 weeks after TAC, at which time they were randomized to treatment with A61603, at the same low dose, or vehicle. Fractional shortening, an index of cardiac function, was depressed by TAC, and improved with A61603, but not with vehicle.
FIG. 8. A61603 in pressure overload cardiomyopathy improves growth and protection, and reduces fibrosis.
Studies in mice looking at alpha-1 agonist therapy, using A61603, in a model of heart failure due to pressure overload (transverse aortic constriction model). A model of pressure overload was tested for 2 reasons: (1) test generality of A61603 effects in different types of cardiomyopathy; and (2) test treatment (rescue), rather than prevention, i.e. A61603 given at an interval of time after injury, when cardiomyopathy was already manifest. We used an adult mouse model of transverse aortic constriction (TAC), with the aorta surgically narrowed, so that the heart had to pump against an increased pressure (pressure overload). […] A61603 treatment rescued the cardiomyopathy, as measured by heart function (FIG. 7). […] Thus improvement in function caused by A61603 was again due to direct effects on cardiac muscle cells. The alpha-1A agonist A61603 at a low dose rescues (e.g. treats) cardiomyopathy due to pressure overload, an injury that simulates several types of cardiac disease, and the mechanism is improvement of cardiac myocytes.

[2] = Ischemic, post-myocardial infarction (LAD ligation) cardiomyopathy model; assay type: in vivo, mouse
From the text: FIG. 9. A61603 rescues ischemic, post-myocardial infarction (MI) cardiomyopathy. Mice had echo 4 weeks after LAD ligation (MI), at which time they were randomized to treatment with A61603, at the same low dose, or vehicle.
FIG. 10. A61603 in ischemic, post-MI cardiomyopathy improves growth and protection, and reduces fibrosis. Values are normalized to mice treated with vehicle. Mice treated with A61603 had smaller atria, less fibrosis, higher fractional shortening (FS), smaller left ventricle end diastolic diameter (LVEDD), and larger myocyte size in the surviving heart (MC CSA). The size of the MI was unchanged, as expected because treatment started 4 weeks after LAD ligation, by which time the MI had healed.
Studies in mice looking at alpha-1 agonist therapy, using A61603, in a model of heart failure and cardiomyopathy due to myocardial infarction (heart attack). We used an animal model of myocardial infarction to test whether the alpha-1A agonist A61603 could rescue (e.g. treat) cardiomyopathy, when treatment was initiated at some time after injury (e.g. after the acute period was complete). Rescue mimics what is seen commonly in the clinic, where patients are admitted with HF, caused by a cardiomyopathy that has been present for months or years. This model was a model of ischemic, post-myocardial infarction (MI) cardiomyopathy. Ischemic heart disease caused by coronary atherosclerosis is extremely common and ischemic and overload cardiomyopathies associated with these diseases comprise the largest group of patients with HF. We used a mouse model of coronary ligation to cause MI. The mouse coronary ligation was permanent, however, patients typically have some form of reperfusion (e.g. angioplasty). We used a mouse model where the MI is healed completely, which is typical for patients admitted with HF late after MI. A61603 treatment rescued (e.g treated) the cardiomyopathy, as measured by heart function (FIG. 9A-B).
The improvement in function caused by A61603 after MI was again due to direct effects on ardiac muscle cells (FIG. 10). In this case, the effect was to increase the size of muscle cells in the surviving heart wall, helping restore the total amount of contracting heart muscle. There was also less fibrosis than control. The smaller weight of the atria indicates lower pressures within the left ventricle, a beneficial functional outcome, and the smaller diameter of the left ventricle indicates less cardiac enlargement, also a beneficial outcome.

ERK = ERK activation in adult mouse cardiac muscle cells; assay type: cell-based; conditions: low concentration, FIG. 3 left
From the text: FIG. 3. A61603 protects adult cardiac muscle cells. In adult mouse cardiac muscle cells, A61603 at a low concentration activates ERK (left), and protects against a cardiotoxic cancer drug, (DOX) (right). These effects are not blocked by a beta-blocker, propranolol (Prop), which is current standard of care in heart failure therapy. That is, A61603 effects are additive to those of a beta-blocker. Knockout of the alpha-1A receptor (AKO) eliminates myocyte protection by A61603 (right), showing that the drug does indeed work through the alpha-1A, as expected.

[3] = Blood pressure after acute intraperitoneal injection, indwelling arterial catheter; assay type: in vivo, mouse; conditions: 10 ng/kg injected acutely intraperitoneal
Method: The classic effect of alpha-1-agonists is to increase BP by stimulating smooth muscle cells to contract. It could be a disadvantage in heart failure (HF) therapy to increase BP excessively. On the other hand, all current recommended drugs in HF reduce BP, and a drug that increased BP slightly might have a strong therapeutic advantage. […] The foregoing experiments provided the rationale to test treatment with A61603 at 10 ng/kg/d in a mouse model of cardiomyopathy and HF.

kinase ERK = test: ERK activation in neonatal rat cardiac muscle cells in vitro; assay type: cell-based; conditions: FIG. 1
From the text: FIG. 1. A61603 protects neonatal cardiac muscle cells.

cardiac myocytes = test: Cardiac cell protective and adaptive (anabolic) effects in vitro, comparison of alpha-1-agonists; assay type: cell-based; conditions: neonatal rat and adult mouse cardiac myocytes, FIG. 1-3
[4] = Right ventricle cardiomyopathy in pulmonary hypertension (bleomycin) model; assay type: in vivo, mouse
From the text: FIG. 11. A61603 reduces right ventricle (RV) cardiomyopathy in pulmonary hypertension. Mice had bleomycin instilled into the trachea and treatment with A61603 or vehicle. […] Mice with the alpha-1A knocked out did worse (α1ABKO).
Studies in mice looking at alpha-1 agonist therapy, using A61603, in a model of right ventricular failure from pulmonary hypertension. Failure of the right ventricle (RV) is a serious consequence of HF due to disease of the left ventricle (LV), and is also seen as an isolated problem, e.g. in lung disease (e.g. lung fibrosis), where treatment is extremely limited. Experiments were conducted with A61603 therapy in a mouse model of RV cardiomyopathy caused by pulmonary hypertension, which in turn was caused by lung fibrosis. Installation of bleomycin into the lung, caused fibrosis and secondary pulmonary hypertension and RV failure. Mice were treated continuously with A61603 or vehicle.

α1A receptors = conditions: cited from earlier work
α1AR = conditions: Evans et al. (2011); cited from earlier work

Question: Which “degree of overload (the gradient)” value ([1]; A61603 vs vehicle group after TAC) does the source give for CS(=O)(=O)Nc1c(O)ccc2c1CCCC2C1=NCCN1 (stereo not shown) [A61603, N-[1-(4,5-dihydro-1H-imidazol-2-yl)-6-hydroxy-tetralin-5-yl]methanesulfonamide] here?
Answer: The value was “the same in both groups”.

Question: And the “adaptive proteins (myosin or MF20 and beta-myosin or bMHC)” value ([1]; TAC)?
Answer: Its value is “more adaptive proteins”.

Question: And the “collagen fibrosis (Col I)” value ([1]; TAC)?
Answer: The value was “less collagen fibrosis”.

Question: What about the “heart weight normalized to body weight (HW/BW)” value ([1]; TAC) of the same compound?
Answer: The value was “less abnormal enlargement”.

Question: What about the “protection (ERK)” value ([1]; TAC) of the same compound?
Answer: Its value is “higher protection”.

Question: And the fractional shortening ([1]; treatment started 2 weeks after TAC, low dose, vs vehicle)?
Answer: The fractional shortening was “improved”.

Question: And the atria size ([2]; post-MI, normalized to vehicle)?
Answer: The atria size was “smaller atria”.

Question: What about the fibrosis ([2]; post-MI, normalized to vehicle) of the same compound?
Answer: Its fibrosis is “less fibrosis”.

Question: And the “left ventricle end diastolic diameter (LVEDD)” value ([2]; post-MI, normalized to vehicle)?
Answer: Its value is “smaller”.

Question: What about the “myocyte size in the surviving heart (MC CSA)” value ([2]; post-MI, normalized to vehicle) of the same compound?
Answer: Its value is “larger”.

Question: And the “fractional shortening (FS)” value ([2]; post-MI, normalized to vehicle, FIG. 10)?
Answer: Its value is “higher”.

Question: What about the “size of the MI” value ([2]; post-MI, treatment started 4 weeks after LAD ligation) of the same compound?
Answer: Its value is “unchanged”.

Question: What about the fractional shortening ([2]; treatment started 4 weeks after LAD ligation (MI), low dose, vs vehicle) of the same compound?
Answer: Its fractional shortening is “stayed the same or improved”.

Question: And the ERK activation (ERK)?
Answer: The ERK activation was “activates ERK”.

Question: And the BP [3]?
Answer: Its BP is “does not increase BP”.

Question: And the “activation of the kinase ERK” value (kinase ERK)?
Answer: Its value is “high efficacy and potency”.

Question: And the “potency and efficacy relative to several other alpha-1-agonists” value (cardiac myocytes)?
Answer: Its value is “more potent (i.e. worked at a lower dose) and efficacious (i.e. had a larger total effect)”.

Question: And the “RV failure (RV weight normalized to body weight)” value ([4]; bleomycin into trachea, A61603 vs vehicle)?
Answer: Its value is “reduced or prevented RV failure”.

Question: What about the “function of RV muscle taken from treated mice, studied in vitro” value ([4]; bleomycin model) of the same compound?
Answer: The value was “better function”.

Question: What about the “potency at α1A receptors relative to α1B or α1D sites” value (α1A receptors; Knepper et al. (1995)) of the same compound?
Answer: The value was “at least 35 fold”.

Question: What about the “potency as α1A AR agonist relative to phenylephrine, methoxamine and midodrine” value (α1A receptors) of the same compound?
Answer: The value was “more potent”.

Question: And the “cAMP accumulation through α1AR relative to cirazoline” value (α1AR)?
Answer: Its value is “stronger stimulator”.

— patent publication US9364462B2, “Alpha-1-adrenergic receptor agonist therapy” (The Regents of the University of California, priority 2012, dated 2016)
